Counter-ions that a name gives are not always drawn.
Columns and labels:
[1] = system: human cancer cell lines Hs683, U-373MG, HCT-15, LoVo, A549 and MCF-7; assay: MTT test, effect on overall cell growth (mean of six cell lines, examples 3 to 26); format: cell-based; settings: mean of six cell lines Hs683, U-373MG, A549, MCF-7, 72 hours incubation, range of molar concentrations resulting in 50% inhibition of overall tumor cells growth
Procedure: (§1) MTT tests were performed in order to rapidly, i.e. within 5 days, measure the effect of azonafide derivatives of this invention on the overall cell growth. The test measures the number of metabolically active living cells that are able to transform the yellow product 3-(4,5-dimethylthiazol-2-yl)-2,5-diphenyl tetrazolium bromide (herein referred as MTT) into the blue product formazan dye by mitochondrial reduction. The amount of formazan obtained at the end of the experiment, measured by means of a spectrophotometer, is directly proportional to the number of living cells. Optical density determination thus enables a quantitative measurement of the effect of the investigated compounds as compared to the control condition (untreated cells) and/or to other reference compounds.
(§2) Height human cancer cell lines described in table 1 were used in the following MTT tests. These cell lines cover six histological cancer types, being prostate, glioma, pancreas, colon, lung and breast cancers. Cells were allowed to grow in 96-well micro-wells with a flat bottom with an amount of 100 μl of cell suspension per well with 1,000 to 4,000 cells/well depending on the cell type used. Each cell line was seeded in a well known MEM 5% serum culture medium.
(§3) The detailed experimental procedure was as following: after a 24-hour period of incubation at 37° C., the culture medium was replaced by 100 μl of fresh medium in which the compound to be tested was dissolved at the following molar concentrations: 10^−9 M, 5.10^−9 M, 10^−8 M, 5.10^−8 M, 10^−7 M, 5.10^−7 M, 10^−6 M, 5.10^−6 M and 10^−5 M. Each experiment was repeated 6 times.
(§4) After 72 hours of incubation at 37° C. with (experimental conditions) or without (control condition) the compound to be tested, the medium was replaced by 100 μl MTT dissolved in RPMI at a concentration of 1 mg/ml. The micro-wells were subsequently incubated during 3 hours at 37° C. and centrifuged at 400 g during 10 minutes. MTT was removed and formazan crystals formed were dissolved in 100 μl DMSO. The micro-wells were shaken for 5 minutes and read on a spectrophotometer at wavelengths of 570 nm (maximum formazan absorbance) and 630 nm (back-ground noise).
(§5) For each experimental condition, the mean optical density was calculated, as well as the percentage of remaining living cells in comparison with the control.
(§6) IC50 values for compounds of examples 3 to 26 were obtained on cell lines Hs683, U-373MG, HCT-15, LoVo, A549 and MCF-7 described in Table 1. IC50 values for compounds from examples 27 to 45 were obtained on cell lines PC3, U-373MG, BxPC3, LoVo, A549 and MCF-7 described in Table 1.

A549 (Lung cancer) cells = assay: Effect on cell migration, A549; format: cell-based; settings: Homo sapiens, 22 hours on the 25% of most motile cells, p value in same cell, read-out: Maximum effects (cell migration)
Procedure: (§7) Cells of different cancer lines, i.e. U-373 MG (Glioma cancer), PC3 (prostate cancer and A549 (Lung cancer) were seeded on culture flask 48 hours before the migration experiment. On the test day, cells were treated with or without the azonafide derivatives mentioned in table 3 in closed Falcon dishes containing a buffered medium at a controlled temperature (37.0±0.1° C.) for 12 or 22 hours, as noted in the right column of table 3. The azonafide derivatives were used at three non-cytotoxic concentrations (10^−6 M, 10^−7, 10^−8 M). Migration of the cells was observed by means of a CCD-camera mounted on a phase-contrast microscope. Statistical analysis of the migration, with the non-parametric Mann-Whitney test, was established for 25% and 50% of the most motile cells and for the entire cell population.

[2] = system: U-373 MG, PC-3 and/or A549 cancer cells; assay: Effect on cell migration, summary of table 3; format: cell-based, human; settings: for migration level of cancer cells: U-373 MG, PC-3 and/or A549 cancer cells at the non-cytotoxic concentrations of this study
Procedure: as §7

[3] = system: human cancer cell lines PC3, U-373MG, BxPC3, LoVo, A549 and MCF-7; assay: MTT test, effect on overall cell growth (mean of six cell lines, examples 27 to 45); format: cell-based; settings: mean of six cell lines PC3, U-373MG, A549, MCF-7, 72 hours incubation, range of molar concentrations resulting in 50% inhibition of overall tumor cells growth
Procedure: as §1, §2, §3, §4, §5, §6

SMILES | IC50 [1] [µM] | IC50 [3] [µM] | also measured
CN(C)CCN1C(=O)c2cccc3cc4cccc(NC(=O)CCCCl)c4c(c23)C1=O [Example 10, 4-chloro-N-{2-[2-(dimethylamino)ethyl]-1,3-dioxo-2,3-dihydro-1H-dibenzo[de,h]isoquinolin-11-yl}butanamide] | 1 to 5 | – | Emax at 1 µM (A549 (Lung cancer) cells; at 10^−6 M): -24%; migration level of cancer cells [2]: induced a decrease in the migration level
CN(C)CCN1C(=O)c2cccc3cc4c(NC(=O)NC(=O)c5ccccc5)cccc4c(c23)C1=O [Example 16, N-({2-[2-(dimethylamino)ethyl]-1,3-dioxo-2,3-dihydro-1H-dibenzo[de,h]isoquinolin-8-yl}carbamoyl)benzamide hydrochloride] | 1 to 5 | – | –
CN(C)CCN1C(=O)c2cccc3cc4cccc(NC(=O)Oc5ccccc5)c4c(c23)C1=O [Example 18, phenyl {2-[2-(dimethylamino)ethyl]-1,3-dioxo-2,3-dihydro-1H-dibenzo[de,h]isoquinolin-11-yl}carbamate] | > 10 | – | –
CCCCCCCCCC(=O)CC(=O)Nc1cccc2cc3cccc4c3c(c12)C(=O)N(CCN(C)C)C4=O [Example 20, N-{2-[2-(dimethylamino)ethyl]-1,3-dioxo-2,3-dihydro-1H-dibenzo[de,h]isoquinolin-11-yl}-3-oxododecanamide] | > 10 | – | –
CCOC(=O)CCC(=O)CC(=O)Nc1cccc2cc3cccc4c3c(c12)C(=O)N(CCN(C)C)C4=O [Example 23, ethyl 6-({2-[2-(dimethylamino)ethyl]-1,3-dioxo-2,3-dihydro-1H-dibenzo[de,h]isoquinolin-11-yl}amino)-4,6-dioxohexanoate] | > 10 | – | –
C=CCOC(=O)Nc1cccc2cc3cccc4c3c(c12)C(=O)N(CCN(C)C)C4=O [Example 26, allyl {2-[2-(dimethylamino)ethyl]-1,3-dioxo-2,3-dihydro-1H-dibenzo[de,h]isoquinolin-11-yl}carbamate] | – | – | Emax at 0.01 µM (A549 (Lung cancer) cells; at 10^−8 M): -29%; migration level of cancer cells [2]: induced a decrease in the migration level; cell migration activity compared with the closest compounds known in the art ([2]; comparison drawn from table 3): significantly greater cell migration activity than the closest compounds known in the art, or similar cell migration activity at significantly lower concentrations
CN(C)CCN1C(=O)c2cccc3cc4cccc(NC(=O)OCCCCCl)c4c(c23)C1=O [Example 28, 4-chlorobutyl {2-[2-(dimethylamino)ethyl]-1,3-dioxo-2,3-dihydro-1H-dibenzo[de,h]isoquinolin-11-yl}carbamate] | – | > 10 | –
COCCNC(=S)Nc1cccc2cc3cccc4c3c(c12)C(=O)N(CCN(C)C)C4=O [Example 32, 1-{2-[2-(dimethylamino)ethyl]-1,3-dioxo-2,3-dihydro-1H-dibenzo[de,h]isoquinolin-11-yl}-3-[2-methoxyethyl]thiourea] | – | 5 to 10 | –
CC(C)c1ccc(NC(=S)Nc2cccc3cc4cccc5c4c(c23)C(=O)N(CCN(C)C)C5=O)cc1 [Example 33, 1-{2-[2-(dimethylamino)ethyl]-1,3-dioxo-2,3-dihydro-1H-dibenzo[de,h]isoquinolin-11-yl}-3-[4-isopropylphenyl]thiourea] | – | > 10 | –
COc1ccc(NC(=S)Nc2cccc3cc4cccc5c4c(c23)C(=O)N(CCN(C)C)C5=O)cc1 [Example 34, 1-{2-[2-(dimethylamino)ethyl]-1,3-dioxo-2,3-dihydro-1H-dibenzo[de,h]isoquinolin-11-yl}-3-[4-methoxyphenyl]thiourea] | – | > 10 | –
C=CCNC(=S)Nc1cccc2cc3cccc4c3c(c12)C(=O)N(CCN(C)C)C4=O [Example 36, 1-{2-[2-(dimethylamino)ethyl]-1,3-dioxo-2,3-dihydro-1H-dibenzo[de,h]isoquinolin-11-yl}-3-[allyl]thiourea] | – | > 10 | –
COc1ccccc1NC(=S)Nc1cccc2cc3cccc4c3c(c12)C(=O)N(CCN(C)C)C4=O [Example 37, 1-{2-[2-(dimethylamino)ethyl]-1,3-dioxo-2,3-dihydro-1H-dibenzo[de,h]isoquinolin-11-yl}-3-[2-methoxyphenyl]thiourea] | – | > 10 | –
CN(C)CCN1C(=O)c2cccc3cc4cccc(NC(=S)NCc5ccco5)c4c(c23)C1=O [Example 40, 1-{2-[2-(dimethylamino)ethyl]-1,3-dioxo-2,3-dihydro-1H-dibenzo[de,h]isoquinolin-11-yl}-3-[2-furylmethyl]thiourea] | – | 1 to 5 | –

Further lines, with some results ahead:

IC50 [1] [µM] | IC50 [3] [µM] | SMILES | also measured
1 to 5 | – | CN(C)CCN1C(=O)c2cccc3cc4c(N)cccc4c(c23)C1=O [Example 4, 8-amino-2-[2-(dimethylamino)ethyl]-1H-dibenzo[de,h]isoquinoline-1,3(2H)-dione, reference compound] | –
> 10 | – | CN(C)CCN1C(=O)c2cccc3cc4cccc(NC(=O)CC(=O)CCc5ccccc5)c4c(c23)C1=O [Example 22, N-{2-[2-(dimethylamino)ethyl]-1,3-dioxo-2,3-dihydro-1H-dibenzo[de,h]isoquinolin-11-yl}-3-oxo-5-phenylpentanamide] | –
– | > 10 | CN(C)CCN1C(=O)c2cccc3cc4cccc(NC(=S)Nc5ccc(Br)cc5)c4c(c23)C1=O [Example 30, 1-{2-[2-(dimethylamino)ethyl]-1,3-dioxo-2,3-dihydro-1H-dibenzo[de,h]isoquinolin-11-yl}-3-[4-bromophenyl]thiourea] | –
– | > 10 | CCNC(=S)Nc1cccc2cc3cccc4c3c(c12)C(=O)N(CCN(C)C)C4=O [Example 35, 1-{2-[2-(dimethylamino)ethyl]-1,3-dioxo-2,3-dihydro-1H-dibenzo[de,h]isoquinolin-11-yl}-3-[ethyl]thiourea] | –
– | > 10 | CN(C)CCN1C(=O)c2cccc3cc4cccc(NC(=S)Nc5cccnc5)c4c(c23)C1=O [Example 38, 1-{2-[2-(dimethylamino)ethyl]-1,3-dioxo-2,3-dihydro-1H-dibenzo[de,h]isoquinolin-11-yl}-3-[3-pyridyl]thiourea] | –
– | > 10 | CN(C)CCN1C(=O)c2cccc3cc4cccc(NC(=S)Nc5ccc(Br)cc5OC(F)(F)F)c4c(c23)C1=O [Example 39, 1-{2-[2-(dimethylamino)ethyl]-1,3-dioxo-2,3-dihydro-1H-dibenzo[de,h]isoquinolin-11-yl}-3-[2-trifluoromethoxy4-bromophenyl]thiourea] | –
– | 1 to 5 | CN(C)CCN1C(=O)c2cccc3cc4cccc(NC(=S)Nc5ccc(C(F)(F)F)cc5)c4c(c23)C1=O [Example 41, 1-{2-[2-(dimethylamino)ethyl]-1,3-dioxo-2,3-dihydro-1H-dibenzo[de,h]isoquinolin-11-yl}-3-[4-trifluoromethylphenyl]thiourea] | –
– | 1 to 5 | CN(C)CCN1C(=O)c2cccc3cc4cccc(NC(=S)Nc5ccc6nsnc6c5)c4c(c23)C1=O [Example 43, 1-(2,1,3-Benzothiadiazol-5-yl)-3-{2-[2-(dimethylamino)ethyl]-1,3-dioxo-2,3-dihydro-1H-dibenzo[de,h]isoquinolin-11-yl}thiourea] | –
– | > 10 | CN(C)CCN1C(=O)c2cccc3cc4cccc(NC(=S)Nc5ccccc5OC(F)(F)F)c4c(c23)C1=O [Example 45, 1-{2-[2-(dimethylamino)ethyl]-1,3-dioxo-2,3-dihydro-1H-dibenzo[de,h]isoquinolin-11-yl}-3-[2-(trifluoromethoxy)phenyl]thiourea] | –

Source: patent publication US7741337B2, “Azonafide derivatives, methods for their production and pharmaceutical compositions therefrom” (Unibioscreen S.A., priority 2005, dated 2010)
